{
  "source": "paper PMC11604427",
  "about": "(Frontiers in Pharmacology, 2024)",
  "key": {"[1]": {"target": "T1, Human recombinant PKMYT1 enzyme (Homo sapiens, UniProt Q99640)", "T1 construct": "purchased Abcam", "T1 sequence (Q99640 1-499)": "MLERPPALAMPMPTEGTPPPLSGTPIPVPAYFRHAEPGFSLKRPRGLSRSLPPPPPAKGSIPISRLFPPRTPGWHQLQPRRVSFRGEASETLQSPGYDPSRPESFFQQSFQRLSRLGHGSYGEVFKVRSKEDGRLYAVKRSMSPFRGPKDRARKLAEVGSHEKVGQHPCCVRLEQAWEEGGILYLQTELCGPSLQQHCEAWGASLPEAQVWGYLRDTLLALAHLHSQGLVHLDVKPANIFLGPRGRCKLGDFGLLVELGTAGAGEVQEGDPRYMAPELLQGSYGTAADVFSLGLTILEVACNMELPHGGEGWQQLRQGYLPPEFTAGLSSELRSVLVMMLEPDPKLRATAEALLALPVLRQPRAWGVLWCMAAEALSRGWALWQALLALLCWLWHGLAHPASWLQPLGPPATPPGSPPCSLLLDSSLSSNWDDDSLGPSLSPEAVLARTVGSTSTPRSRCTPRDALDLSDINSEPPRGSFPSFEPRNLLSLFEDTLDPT", "assay": "ADP-GLO enzyme inhibition assay", "assay_type": "biochemical", "method": "The ADP-GLO™ kinase assay kit, purchased from Promega Corporation (Madison, WI, United States), included the ADP-GLO reagent, the kinase assay reagent, and ultra-pure ATP and ADP. PKMYT1 enzyme was dissolved in 5 μL of freshly prepared enzyme assay buffer containing 70 mM Hepes, 3 mM MgCl2, 3 mM MnCl2, 50 μg/mL PEG20000, 3 μM sodium orthovanadate, 1.2 mM dithiothreitol, and then injected into 384-well plates. […] The enzymatic reaction was initiated by adding 5 μL of ATP, followed by a 60-min incubation at 30°C. Subsequently, 15 μL of ADP-GLO reagent was added, and the incubation was continued for an additional 40 min at room temperature. Then, 30 μL of kinase detection reagent was introduced, and the samples were incubated for a final 30 min. Luminescence measurements were taken using an Envision plate reader (PerkinElmer). The IC50 value of each tested compound was calculated by GraphPad Prism software."}, "[2]": {"tested_on": "HepG2/MDR", "assay": "MTT assay", "assay_type": "cell-based", "conditions": "Homo sapiens, multidrug-resistant HepG2/MDR, 48 h, read-out: IC50 (μM) ± SD HepG2/MDR", "method": "(§1) Cells at a density of 4×10^3 cells/well were inoculated into 96-well plates for overnight culture at 37°C. […] Then, 100 μL of a 0.5 mg/mL MTT solution was pipetted into each well, and the incubation was prolonged for 4 h, resulting in the formation of a purple precipitate. Afterward, 200 μL of DMSO was added to each well, and the plate was vortexed for 10 min. The absorbance at 570 nm was determined with a Synergy 4 microplate reader (BioTek, United States). Each experiment was performed three times under the same conditions."}, "[3]": {"tested_on": "HepG2", "assay": "MTT assay", "assay_type": "cell-based", "conditions": "Homo sapiens, HepG2, 48 h, read-out: IC50 (μM) ± SD HepG2", "method": "as §1"}, "[4]": {"tested_on": "Huh7", "assay": "MTT assay", "assay_type": "cell-based", "conditions": "Homo sapiens, Huh-7, Huh7, 48 h, read-out: IC50 (μM) ± SD Huh7", "method": "as §1"}, "[5]": {"tested_on": "SNU449", "assay": "MTT assay", "assay_type": "cell-based", "conditions": "Homo sapiens, SNU-449, SNU449, 48 h, read-out: IC50 (μM) ± SD SNU449", "method": "as §1"}, "[6]": {"tested_on": "normal human liver cell line L02", "assay": "MTT assay", "assay_type": "cell-based", "conditions": "normal liver cell line L02, 48 h", "method": "as §1"}, "[7]": {"tested_on": "HCC cell lines", "assay": "MTT assay, all HCC cell lines", "assay_type": "cell-based", "conditions": "Homo sapiens, range over HepG2, Hep3B, Huh7, SNU449, HepG2/MDR, 48 h, read-out: IC50 values against all HCC cell lines", "method": "The MTT assay was conducted to evaluate the inhibitory impact of PKHD-5 on HCC cells, HepG2/ADR cells, and normal liver cells ([Ding et al., 2020]). Cells at a density of 4×10^3 cells/well were inoculated into 96-well plates for overnight culture at 37°C. The cells were treated with varying concentrations of the test compounds and incubated for 48 h. Then, 100 μL of a 0.5 mg/mL MTT solution was pipetted into each well, and the incubation was prolonged for 4 h, resulting in the formation of a purple precipitate. Afterward, 200 μL of DMSO was added to each well, and the plate was vortexed for 10 min. The absorbance at 570 nm was determined with a Synergy 4 microplate reader (BioTek, United States). Each experiment was performed three times under the same conditions."}, "[8]": {"tested_on": "HepG2 xenograft", "assay": "HepG2 bearing xenograft model", "assay_type": "in vivo, BALB/c nude mice", "conditions": "versus vehicle", "source_text": "A previously reported human tumor xenograft model was established to evaluate the anti-tumor effects of PKHD-5 in vivo ([Zhou et al., 2022]). All procedures involving animals were granted approval by the Ethics Committee at China Pharmaceutical University. A total of 20 male BALB/c nude mice (6 weeks old) were purchased from Changzhou Cave Experimental Animal Co., Ltd. (Changzhou, China). Mice were maintained under specific pathogen-free (SPF) conditions, with environmental parameters meticulously controlled at a temperature of 25°C ± 2°C, relative humidity maintained at 50% ± 5%, and an established diurnal cycle of 12 h for both light and darkness. During the experiment, all mice were free to access water and food. After 10 days of adaptive feeding, HepG2 cells (1×10^7 cells) were subcutaneously injected into mice. Once the tumors reached a size of 90–120 mm^3, the nude mice were randomly assigned to either the vehicle control group or the group treated with PKHD-5 (n = 5). Furthermore, the treatment was divided into three dose-based groups of 1, 5, and 10 mg/kg. The tumor volume was measured by a digital caliper for a total of 18 days and calculated by the following formula: (c×c×d)/2, where c represents the minimum diameter of the tumor and d indicates the maximum diameter. In addition, the body weight of the mice was measured and recorded every 3 days."}, "[9]": {"target": "63 distinct kinases", "assay": "SelectScreen kinase selectivity assay, whole panel", "assay_type": "biochemical", "conditions": "read-out: IC50 values for each of the 63 kinases", "method": "The kinase selectivity analysis of PKHD-5 was performed using the SelectScreen kinase analysis service provided by Thermo Fisher Scientific. The experiment initially involved the preparation of a series of inhibitor solutions at varying concentrations, which were then reacted with various kinase targets under standardized conditions to calculate the percentage inhibition for each test solution. Ultimately, the IC50 values were calculated based on the concentration-inhibition curves by fitting a four-parameter logistic curve, thereby assessing the potency and selectivity of the inhibitors. The analysis results are detailed in Supplementary Table S1."}},
  "data": [
    {"smiles": "Cc1ccc(O)c(C)c1-n1c(N)c(C(N)=O)c2cc(CCCCCC(=O)NO)c(C)nc21", "note": "[PKHD-5]", "values": [
      {"measurement": "IC50", "setting": "[1]; ADP-GLO method", "value": "3.15 ± 0.21", "unit": "nM"},
      {"measurement": "fold inhibition of PKMYT1 compared with the control compound 39", "setting": "[1]; ratio of IC50 values versus compound 39", "value": 4.91, "unit": "fold"},
      {"measurement": "IC50", "setting": "[2]", "value": "0.92 ± 0.05", "unit": "µM"},
      {"measurement": "IC50", "setting": "[3]", "value": "0.19 ± 0.03", "unit": "µM"},
      {"measurement": "IC50", "setting": "[4]", "value": "0.47 ± 0.04", "unit": "µM"},
      {"measurement": "IC50", "setting": "[5]", "value": "0.59 ± 0.06", "unit": "µM"},
      {"measurement": "IC50", "setting": "[6]", "value": "> 100", "unit": "µM"},
      {"measurement": "IC50", "setting": "[7]", "value": "190 to 920", "unit": "nM"},
      {"measurement": "body weight changes in mice", "setting": "[8]; HepG2 xenograft mice", "value": "did not exhibit any significant disparities"},
      {"measurement": "rate at which tumors grew (tumor volume)", "setting": "[8]; HepG2 xenograft, intraperitoneal 1, 5, 10 mg/kg, 18 days", "value": "considerably lower"},
      {"measurement": "IC50", "setting": "[9]", "value": "> 50", "unit": "µM"}
    ]}
  ]
}
